From US10376520B2, “Methods for the treatment of cardiovascular disorders” (Galapagos NV, priority 2015, dated 2019)

System: RA patients
Experiment: Total cholesterol determination, Study 1 (RA patients with inadequate response to methotrexate, add-on to MTX)
Assay type: in vivo, human
Settings: for [Total cholesterol] Median CFB / [total cholesterol] Mean CFB: Study 1 12 weeks results
Protocol: Double-blind, placebo-controlled add on study in subjects with moderately to severely active RA who have an inadequate response to methotrexate (MTX) (oral or parenteral).
595 subjects randomized to one of 6 dose regimens of Compound 1 (dosed as a [Compound 1:HCl:3H2O]) (3 dose levels administered either once or twice daily) or placebo on top of each subject's stable dose of MTX.
Compound 1 (dosed as a [Compound 1:HCl:3H2O]) is dosed for twelve weeks once daily (q.d.) (50 mg, 100 mg or 200 mg) or twice daily (b.i.d.) (25 mg, 50 mg or 100 mg); or placebo.
At Week 12, the subjects on placebo who have not achieved 20% improvement in swollen joint count (SJC66) and tender joint count (TJC68) are re-randomized automatically to receive Compound 1 (dosed as a [Compound 1:HCl:3H2O]) either at 100 mg q.d. or 50 mg b.i.d. doses in a blinded fashion; subjects on 50 mg q.d. who have not achieved 20% improvement in SJC66 and TJC68 will be assigned to 100 mg q.d. and subjects on 25 mg b.i.d. that have not achieved a 20% improvement in SJC66 and TJC68 will be assigned to 50 mg b.i.d. Subjects who switch treatment at week 12 are handled as if they discontinued at week 12 for the purpose of statistical analysis, whereas subjects in the other groups will maintain their randomized treatment until Week 24.
This method is based on the determination of Δ^4 cholestenone after enzymatic cleavage of the cholesterol ester by cholesterol esterase, conversion of cholesterol by cholesterol oxidase, and subsequent measurement by the Trinder reaction of the hydrogen peroxide formed (Allain et al., 1974).
Cholesterol esters are cleaved by the action of cholesterol esterase to yield free cholesterol and fatty acids. Cholesterol oxidase then catalyzes the oxidation of cholesterol to cholest-4-en-3-one and hydrogen peroxide. In the presence of peroxidase, the hydrogen peroxide formed effects the oxidative coupling of phenol and 4-aminophenazone to form a red quinone-imine dye. The color intensity of the dye formed is directly proportional to the cholesterol concentration. It is determined by measuring the increase in absorbance.
Human serum and plasma samples cholesterol determination was done on a Roche/Hitachi Cobas c 701/702 system which automatically calculate the analyte concentration of each sample.

Compound: O=C(Nc1nc2cccc(-c3ccc(CN4CCS(=O)(=O)CC4)cc3)n2n1)C1CC1 [Compound 1, cyclopropanecarboxylic acid {5-[4-(1,1-dioxo-thiomorpholin-4-ylmethyl)-phenyl]-[1,2,4]triazolo[1,5-a]pyridin-2yl}-amide]
- [total cholesterol] Mean percentage CFB - 12 weeks results (50 mg q.d. (N = 82), week 1): 1%
- [total cholesterol] Mean percentage CFB - 12 weeks results (50 mg q.d. (N = 82), week 2): 1%
- [total cholesterol] Mean percentage CFB - 12 weeks results (50 mg q.d. (N = 82), week 4): 1%
- [total cholesterol] Mean percentage CFB - 12 weeks results (50 mg q.d. (N = 82), week 8): 3%
- [total cholesterol] Mean percentage CFB - 12 weeks results (50 mg q.d. (N = 82), week 12): 5%
- [total cholesterol] Mean percentage CFB - 12 weeks results (100 mg q.d. (N = 85), week 1): 4%
- [total cholesterol] Mean percentage CFB - 12 weeks results (100 mg q.d. (N = 85), week 2): 2%
- [total cholesterol] Mean percentage CFB - 12 weeks results (100 mg q.d. (N = 85), week 4): 5%
- [total cholesterol] Mean percentage CFB - 12 weeks results (100 mg q.d. (N = 85), week 8): 4%
- [total cholesterol] Mean percentage CFB - 12 weeks results (100 mg q.d. (N = 85), week 12): 5%
- [total cholesterol] Mean percentage CFB - 12 weeks results (200 mg q.d. (N = 86), week 1): 6%
- [total cholesterol] Mean percentage CFB - 12 weeks results (200 mg q.d. (N = 86), week 2): 7%
- [total cholesterol] Mean percentage CFB - 12 weeks results (200 mg q.d. (N = 86), week 4): 8%
- [total cholesterol] Mean percentage CFB - 12 weeks results (200 mg q.d. (N = 86), week 8): 10%
- [total cholesterol] Mean percentage CFB - 12 weeks results (200 mg q.d. (N = 86), week 12): 10%
- [total cholesterol] Mean percentage CFB - 12 weeks results (2 x 25 mg b.i.d. (N = 86), week 1): 2%
- [total cholesterol] Mean percentage CFB - 12 weeks results (2 x 25 mg b.i.d. (N = 86), week 2): 3%
- [total cholesterol] Mean percentage CFB - 12 weeks results (2 x 25 mg b.i.d. (N = 86), week 4): 3%
- [total cholesterol] Mean percentage CFB - 12 weeks results (2 x 25 mg b.i.d. (N = 86), week 8): 3%
- [total cholesterol] Mean percentage CFB - 12 weeks results (2 x 25 mg b.i.d. (N = 86), week 12): 5%
- [total cholesterol] Mean percentage CFB - 12 weeks results (2 x 50 mg b.i.d. (N = 85), week 1): 3%
- [total cholesterol] Mean percentage CFB - 12 weeks results (2 x 50 mg b.i.d. (N = 85), week 2): 4%
- [total cholesterol] Mean percentage CFB - 12 weeks results (2 x 50 mg b.i.d. (N = 85), week 4): 7%
- [total cholesterol] Mean percentage CFB - 12 weeks results (2 x 50 mg b.i.d. (N = 85), week 8): 6%
- [total cholesterol] Mean percentage CFB - 12 weeks results (2 x 50 mg b.i.d. (N = 85), week 12): 6%
- [total cholesterol] Mean percentage CFB - 12 weeks results (2 x 100 mg b.i.d. (N = 84), week 1): 7%
- [total cholesterol] Mean percentage CFB - 12 weeks results (2 x 100 mg b.i.d. (N = 84), week 2): 8%
- [total cholesterol] Mean percentage CFB - 12 weeks results (2 x 100 mg b.i.d. (N = 84), week 4): 10%
- [total cholesterol] Mean percentage CFB - 12 weeks results (2 x 100 mg b.i.d. (N = 84), week 8): 15%
- [total cholesterol] Mean percentage CFB - 12 weeks results (2 x 100 mg b.i.d. (N = 84), week 12): 15%
- [Total cholesterol] Median CFB (50 mg q.d., week 1): 0.05 mmol/L
- [total cholesterol] Mean CFB (50 mg q.d., week 1): 0.0 mmol/L
- [Total cholesterol] Median CFB (50 mg q.d., week 2): 0.04 mmol/L
- [total cholesterol] Mean CFB (50 mg q.d., week 2): 0.1 mmol/L
- [Total cholesterol] Median CFB (50 mg q.d., week 4): 0.06 mmol/L
- [total cholesterol] Mean CFB (50 mg q.d., week 4): 0.1 mmol/L
- [Total cholesterol] Median CFB (50 mg q.d., week 8): 0.16 mmol/L
- [total cholesterol] Mean CFB (50 mg q.d., week 8): 0.1 mmol/L
- [Total cholesterol] Median CFB (50 mg q.d., week 12): 0.20 mmol/L
- [total cholesterol] Mean CFB (50 mg q.d., week 12): 0.2 mmol/L
- [Total cholesterol] Median CFB (100 mg q.d., week 1): 0.14 mmol/L
- [total cholesterol] Mean CFB (100 mg q.d., week 1): 0.2 mmol/L
- [Total cholesterol] Median CFB (100 mg q.d., week 2): 0.07 mmol/L
- [total cholesterol] Mean CFB (100 mg q.d., week 2): 0.1 mmol/L
- [Total cholesterol] Median CFB (100 mg q.d., week 4): 0.25 mmol/L
- [total cholesterol] Mean CFB (100 mg q.d., week 4): 0.2 mmol/L
- [Total cholesterol] Median CFB (100 mg q.d., week 8): 0.09 mmol/L
- [total cholesterol] Mean CFB (100 mg q.d., week 8): 0.1 mmol/L
- [Total cholesterol] Median CFB (100 mg q.d., week 12): 0.30 mmol/L
- [total cholesterol] Mean CFB (100 mg q.d., week 12): 0.2 mmol/L
- [Total cholesterol] Median CFB (200 mg q.d., week 1): 0.25 mmol/L
- [total cholesterol] Mean CFB (200 mg q.d., week 1): 0.3 mmol/L
- [Total cholesterol] Median CFB (200 mg q.d., week 2): 0.34 mmol/L
- [total cholesterol] Mean CFB (200 mg q.d., week 2): 0.3 mmol/L
- [Total cholesterol] Median CFB (200 mg q.d., week 4): 0.33 mmol/L
- [total cholesterol] Mean CFB (200 mg q.d., week 4): 0.4 mmol/L
- [Total cholesterol] Median CFB (200 mg q.d., week 8): 0.54 mmol/L
- [total cholesterol] Mean CFB (200 mg q.d., week 8): 0.4 mmol/L
- [Total cholesterol] Median CFB (200 mg q.d., week 12): 0.26 mmol/L
- [total cholesterol] Mean CFB (200 mg q.d., week 12): 0.5 mmol/L
- [Total cholesterol] Median CFB (2 x 25 mg b.i.d., week 1): 0.12 mmol/L
